Assay results reported in PubChem BioAssay AID1872 (NMMLSC, 2009).
Active and inactive are the calls of the source. How the calls were made is not given here.

Target: Regulator of G-protein signaling 4 (Homo sapiens) (UniProt P49798)
Assay: small molecules altering RGS4 binding to Galphao – biochemical, bead-based flow cytometry, multiplex, dose response (AID 1872)
Details: not given

Sequence of Regulator of G-protein signaling 4 (Homo sapiens) (P49798 whole entry, looked up): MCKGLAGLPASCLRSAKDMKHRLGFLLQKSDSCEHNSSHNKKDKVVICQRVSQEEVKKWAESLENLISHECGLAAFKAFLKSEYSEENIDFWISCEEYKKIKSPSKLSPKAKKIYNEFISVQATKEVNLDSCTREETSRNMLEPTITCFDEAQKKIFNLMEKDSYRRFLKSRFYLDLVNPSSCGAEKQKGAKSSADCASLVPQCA

Structure (SMILES)	EC50
CCOC(=O)C1=C(C)NC(C)=C(C(=O)OCCNC(=O)c2cccnc2)C1c1cccc([N+](=O)[O-])c1 (configuration not stated)	> 30 µM (inactive)
CCOC(=O)N=Nc1c(O)n(C)c2ccccc12	> 30 µM (inactive)
NS(=O)(=O)c1ccc(N/N=C/c2ccc(O)c(O)c2O)c([N+](=O)[O-])c1	3.56 µM
CC(C)Sc1nc2ccc(N3C(=O)C4CCCCC4C3=O)cc2s1 (configuration not stated)	> 30 µM (inactive)
COc1ccc(Br)cc1/C=N/Nc1cccc(C(=O)O)c1	> 30 µM (inactive)
CN(C)[C@@H]1C(=O)C(C(=O)NCN2CCCC2)=C(O)[C@@]2(O)C(=O)C3=C(O)c4c(O)cccc4[C@@](C)(O)C3CC12 (some centres not stated)	11.8 µM
O=c1[nH]c(=S)n(Cc2ccco2)c(O)c1C=NCc1cccs1	> 30 µM (inactive)
O=C1CCCC2=C1C(c1cccs1)n1ncnc1N2 (configuration not stated)	inactive
CCOC(=O)/C(C(=O)Nc1ccccc1Cl)=C1/NC(C)(C)Cc2ccccc21	inactive

Same assay, conditions: measured here: Ki for RGS4-Galphao

Structure (SMILES)	Ki
CCC(=O)NC1=C(Cl)C(=O)C(NC(=O)CC)=C(Cl)C1=O	4.61 µM
O=C(O)C[C@@H]1C(=O)O[C@@H]2C(COC(=O)c3cc(O)c(O)c(O)c3)O[C@@H](OC(=O)c3cc(O)c(O)c(O)c3)[C@@H](OC(=O)c3cc(O)c(O)c4c3[C@H]1[C@H](O)C(=O)O4)[C@H]2OC(=O)c1cc(O)c(O)c(O)c1 (some centres not stated)	0.88 µM
COc1ccc(C2=CC(=O)C=CC2=O)cc1	19.7 µM
O=C(OCC1O[C@@H](OC(=O)c2cc(O)c(O)c(O)c2)[C@@H](OC(=O)c2cc(O)c(O)c(O)c2)[C@@H](OC(=O)c2cc(O)c(O)c(O)c2)[C@@H]1OC(=O)c1cc(O)c(O)c(O)c1)c1cc(O)c(O)c(O)c1 (some centres not stated)	0.38 µM
CN(C)c1ncc(C2=C(Cl)C(=O)C(N3CCCC3)=C(Cl)C2=O)s1	1.95 µM
CCNc1ccc2noc3c2c1C(=O)c1ccccc1-3	22.5 µM
CCC(=O)NC(c1ccc(C)cc1)c1cc([N+](=O)[O-])c2cccnc2c1O (configuration not stated)	10.1 µM
O=C(O[C@@H]1OC2COC(=O)c3cc(O)c(O)c(O)c3-c3c(cc(O)c(O)c3O)C(=O)O[C@@H]([C@H]1O)[C@@H]2O)c1cc(O)c(O)c(O)c1	3.51 µM
CCN=c1scc(C)n1/N=C/c1ccc(O)c(O)c1O	21.5 µM
NS(=O)(=O)c1ccc(N/N=C/c2ccc(O)c(O)c2O)c([N+](=O)[O-])c1	3.03 µM
COCCCNC(=O)c1ccc2c3c(onc13)-c1ccccc1C2=O	2.62 µM
CN=c1scc(C)n1/N=C/c1ccc(O)c(O)c1O	12 µM
CN(C)[C@@H]1C(=O)C(C(=O)NCN2CCCC2)=C(O)[C@@]2(O)C(=O)C3=C(O)c4c(O)cccc4[C@@](C)(O)C3CC12 (some centres not stated)	10 µM
O=C(Cc1csc(N2CCOCC2)n1)N/N=C/c1ccc(O)c(O)c1O	14.8 µM
COC(=O)CCC(=O)Nc1sc(C)c(C)c1C(N)=O	6.49 µM
O=C1C(Cl)=C(N2CCCCC2)C(=O)C(Cl)=C1c1cnc(N2CCCCC2)s1	1.55 µM
CCN1/C(=C/C=C/C=C/c2sc3ccccc3[n+]2CC)Sc2ccccc21	2.9 µM
Nc1c(C(=O)NCC2CCCO2)sc2nc3c(c(-c4ccco4)c12)CC/C3=C\c1ccco1 (configuration not stated)	2.77 µM
COc1ccc(OC)c(CCNC(=O)Cn2sc3nc(C)cc(C)c3c2=O)c1	5.6 µM
NS(=O)(=O)c1ccc(CNC(=O)/C=C/c2ccco2)cc1	7.78 µM
O=C1CCC(=O)N(O)CCCCCNC(=O)CCC(=O)N(O)CCCCCNC(=O)CCC(=O)N(O)CCCCCN1	2.2 µM
CCN(CC)S(=O)(=O)c1cccc(C(=O)N/N=C/c2ccc(O)c(O)c2O)c1	4.73 µM
O=C1OCC2OC(O)C(O)C(O)C2OC(=O)c2cc(O)c(O)c(O)c2-c2c(O)c(O)c3oc(=O)c4c(c(O)c(O)c5oc(=O)c2c3c54)-c2c1cc(O)c(O)c2O (configuration not stated)	2.05 µM
Cc1cc(Cl)ccc1N=c1ssnc1Cl	4.58 µM
CC(=O)N(O)CCCCCNC(=O)CCC(=O)N(O)CCCCCNC(=O)CCC(=O)N(O)CCCCCN	1.34 µM
CN1CCN(C2=C(Cl)C(=O)C(c3cnc(N4CCCCC4)s3)=C(Cl)C2=O)CC1	0.3 µM
O=C(COc1ccccc1C(=O)N/N=C\c1ccc(O)c(O)c1)N/N=C/c1ccc(O)c(O)c1	3.24 µM
CC1(C)OC(=O)C(=Cc2ccc(-c3ccc(S(N)(=O)=O)cc3)o2)C(=O)O1	8.26 µM
